Data as given in patent US20110245095A1, “FAST ASSIGNMENT OF ADEQUATE CHEMOTHERAPY WITH LATINUM BASED DRUGS FOR CANCER PATIENTS BASED ON THE IDENTIFICATION OF CONSTITUTIONAL BRCAL MUTATIONS” (priority 2008, published 2011).

Key:
Assay type in all cases: in vivo, human
[1] = system: invasive breast cancer, pathogenic BRCA1 mutation carriers; experiment: Neoadjuvant cisplatin therapy in breast cancer patients carrying a constitutional BRCA1 mutation (Example 1)
Description: Eight patients were treated in Szczecin (Poland) and two were treated in Bielsko-Biala (Poland). In these centers, genetic testing is offered to all women with incident breast cancer.
For the purpose of this study, genetic testing was expedited; in most cases the test result was available within five days of diagnosis. Written informed consent was obtained from each patient. The protocol was approved by the Research Ethics Review Board of the Pomeranian Medical Academy.
Patients with a previous diagnosis of breast cancer, or other cancer, were excluded (three patients). Patients who received prior chemotherapy were excluded (three patients). Patients with metastatic disease (stage 1V) at presentation were excluded (one patient). One patient presented with primary breast cancer after a previous prophylactic bilateral mastectomy and was excluded.
Patients were evaluated for renal function, liver function, and hematology prior to therapy.
Prior to platinum chemotherapy, the clinical and histological features of the breast cancers were assessed. Tumor size was evaluated by clinical examination and by ultrasound, in some cases supplemented by mammogram. Histology was evaluated in nine cases by core biopsy and in one case by fine needle aspiration. For the nine cases who underwent core biopsy, grade, ER, PR, and ERBB2 status were evaluated by immuno-histochemistry. […] Grade was evaluated in the core biopsy specimen using the Bloom-Richardson classification system,
Each cycle was 21 days. Granulocyte colony-stimulating factor (G-CSF) was not given to any patient. Dexamethasone (8 mg) was administered once daily for three days after chemotherapy, Ondansetron (Zophran™; GlaxoWellcome) was used for anti-nausea prophylaxis. Toxicity (nausea, vomiting, neutropenia) was assessed using the National Cancer Institute Common Toxicity Criteria after each cycle.
Surgery was followed by post-operative chemotherapy (four cycles of Adriamycin and Cyclophosphamide). Two patients received radiotherapy.
Clinical response was considered complete if there was no evidence of the primary breast tumor according to the World Health Organization (WHO) criteria (total disappearance of the tumor in breast and lymph nodes). Clinical response was considered ‘partial’ if there was a reduction of ≧50% in the product of the two largest perpendicular diameters of the tumor. […] The primary endpoint of this study was pathologic complete response. Pathologic response was considered complete if there was no evidence of invasive breast tumor and the lymph nodes were negative. Pathology specimens were reviewed by two pathologists. If there was evidence of breast carcinoma in situ, but no evidence of invasive disease, this was still considered to be a pathologic complete response.

[2] = system: disseminated ovarian cancer, BRCA1 mutation carriers; experiment: Cisplatin chemotherapy of BRCA1 mutation carriers with disseminated ovarian cancer (Example 2, retrospective); conditions: 4 patients
From the text: The patients selected for this study were retrospectively screened from the database of the oncology department at the Pomeranian Academy of Medicine, Szczecin (Poland). […] All cases were documented for the presence of a BRCA1 constitutional mutation among the dominating founder mutations in Poland (C610, 4153delA and 5382insC) determined by the same techniques described in Example 1. The tumor size had to be measurable per RECIST: X-Ray or physical examination ≧20 mm, and/or spiral CT scan≧10 mm, and/or conventional CT scan≧20 mm. Only individuals were chosen with a life expectancy a priori of at least 3 months, to exclude a technical blur due to extreme disease progression in terminal cancer cases. The maximal ECOG performance status admitted was less than or equal to 2. […]

[3] = system: disseminated breast and ovarian cancer, BRCA1 mutation carriers; experiment: Cisplatin chemotherapy, disseminated breast and ovarian cancer analysed together (Example 2)
From the text: The patients selected for this study were retrospectively screened from the database of the oncology department at the Pomeranian Academy of Medicine, Szczecin (Poland). […] All cases were documented for the presence of a BRCA1 constitutional mutation among the dominating founder mutations in Poland (C610, 4153delA and 5382insC) determined by the same techniques described in Example 1. The tumor size had to be measurable per RECIST: X-Ray or physical examination ≧20 mm, and/or spiral CT scan≧10 mm, and/or conventional CT scan≧20 mm. Only individuals were chosen with a life expectancy a priori of at least 3 months, to exclude a technical blur due to extreme disease progression in terminal cancer cases. The maximal ECOG performance status admitted was less than or equal to 2. The definition of minimum adequacy of organ function required prior to study entry were as follows: Absolute neutrophil count (ANC)>1,500/mcl, Platelets>100,000/mcl, Haemoglobin >8 g/dl, Total Bilirubin <1.5×ULN, AST (SGOT)/ALT (SGPT)<2.5×ULN and Creatinine within the normal institutional limits. All patients signed their willingness and ability to comply with scheduled visits, treatment plans, laboratory tests, and other study procedures. A total of 15 patients matched the selection criteria with ages at diagnosis ranging from 32 to 70 years and mean age at diagnosis of 48 years.
Ovarian cancer patients were selected following the same selection criteria. Four individuals matched the criteria with ages at diagnosis ranging from 42 to 45 years and mean age at diagnosis of 43.5 years.
The response assessment was based on a complete tumor measurement form (the form is carried forward continuously from cycle to cycle). Possible responses were complete response, partial response, stable disease and progressive disease, according to international oncology standards.

[4] = system: cancer of the colon, BRCA1 mutation carriers; experiment: Cisplatin chemotherapy of BRCA1 mutation carriers with colon cancer (Example 3, retrospective); conditions: 1 patient
From the text: (§1) The database of the oncology department at the Pomeranian Academy of Medicine, Szczecin (Poland), was retrospectively screened for patients affected by cancer types different than the breast or ovary (histologically or cytologically proven) since those cancer types had already been analyzed in Examples 1 and 2. Those patients had to be carriers of at least one constitutional mutation of the gene BRCA1, among the dominating founder mutations in Poland (CMG, 4153delA and 5382insC). The presence of a mutation was determined by the same techniques described in Example 1.
(§2) The group that qualified matching all criteria consisted of five patients affected by cancer of the colon (1 subject), the pancreas (1 subject), the gallbladder (1 subject) and the lung (2 subjects). In 60% of the cases (both lung cancer patients and the colon cancer patient) a complete remission was reported after the application of the chemotherapy. […] In none of the cases, there was a lack of response towards cisplatin.

[5] = system: cancer of the lung, BRCA1 mutation carriers; experiment: Cisplatin chemotherapy of BRCA1 mutation carriers with lung cancer (Example 3, retrospective); conditions: 2 patients
From the text: as §1, §2

[6] = system: cancer of the pancreas, BRCA1 mutation carriers; experiment: Cisplatin chemotherapy of BRCA1 mutation carriers with pancreatic cancer (Example 3, retrospective); conditions: 1 patient
From the text: as §1, §2

[7] = system: cancer of the gallbladder, BRCA1 mutation carriers; experiment: Cisplatin chemotherapy of BRCA1 mutation carriers with gallbladder cancer (Example 3, retrospective); conditions: 1 patient
From the text: as §1, §2

[8] = system: cancer of colon, lung, pancreas, gallbladder, BRCA1 mutation carriers; experiment: Cisplatin chemotherapy of BRCA1 mutation carriers with cancer at sites other than breast and ovaries, total (Example 3); conditions: 5 patients
From the text: as §1, §2

[9] = N = 10, after mastectomy and lymph node dissection
[10] = neoadjuvant cisplatin 75 mg/m^2 every three weeks, N = 10

N.N.[Cl][Pt][Cl] [cisplatin, cis-diamminedichloridoplatinum(II)]
Clinical Response: No Change, % ([1]; N = 10): 0% | Clinical Response: No Change, No. ([1]; N = 10): 0 | Clinical Response: Partial Response, % ([1]; N = 10): 10% | Clinical Response: Partial Response, No. ([1]; N = 10): 1 | Clinical Response: Progressive Disease, % ([1]; N = 10): 0% | Clinical Response: Progressive Disease, No. ([1]; N = 10): 0 | Number of Lymph Nodes Positive: 0, % ([1]; N = 10): 90% | Number of Lymph Nodes Positive: 0, No. ([1]; N = 10): 9 | Number of Lymph Nodes Positive: 1-3, % ([1]; N = 10): 10% | Number of Lymph Nodes Positive: 1-3, No. ([1]; N = 10): 1 | Number of Lymph Nodes Positive: 4-9, % ([1]; N = 10): 0% | Number of Lymph Nodes Positive: 4-9, No. ([1]; N = 10): 0 | Number of Lymph Nodes Positive: >9, % ([1]; N = 10): 0% | Number of Lymph Nodes Positive: >9, No. ([1]; N = 10): 0 | Pathologic Response: No Response, % ([1]; N = 10): 0% | Pathologic Response: No Response, No. ([1]; N = 10): 0 | Pathologic Response: Partial Reseponse, % ([1]; N = 10): 10% | Pathologic Response: Partial Reseponse, No. ([1]; N = 10): 1 | Residual Disease in Breast: 1-3 cm, % ([1]; N = 10): 0% | Residual Disease in Breast: 1-3 cm, No. ([1]; N = 10): 0 | Residual Disease in Breast: 4-9 cm, % ([1]; N = 10): 0% | Residual Disease in Breast: 4-9 cm, No. ([1]; N = 10): 0 | Residual Disease in Breast: <1 cm, % ([1]; N = 10): 0% | Residual Disease in Breast: <1 cm, No. ([1]; N = 10): 0 | Residual Disease in Breast: >9 cm, % ([1]; N = 10): 0% | Residual Disease in Breast: >9 cm, No. ([1]; N = 10): 0 | Residual Disease in Breast: none, % ([1]; N = 10): 100% | Residual Disease in Breast: none, No. ([1]; N = 10): 10 | grade 3 or 4 anemia ([1]; N = 10): No grade 3 or 4 anemia was observed | patients with febrile neutropenia ([1]; N = 10): No patient | Pathologic Response: Complete Pathologic Response, % [1, 9]: 90% | Pathologic Response: Complete Pathologic Response, No. [1, 9]: 9 | patients who stopped due to side effects (nausea and vomiting) ([1]; N = 10, stopped after two cycles): One patient | complete pathologic response, patients who completed treatment ([1]; four cycles of cisplatin, seven patients): all seven | Clinical Response: Complete Response, % [1, 10]: 90% | Clinical Response: Complete Response, No. [1, 10]: 9 | pathologic complete response, patients who received two cycles ([1]; two cycles, three patients): two | No response, number of patients [2]: 0 | Response: PR (partial response), number of patients [2]: 0 | No response, % of patients ([3]; 19 patients): 21% | No response, number of patients ([3]; 19 patients): 4 | Response: CR, % of patients ([3]; 19 patients): 53% | Response: CR, number of patients ([3]; 19 patients): 10 | Response: PR, % of patients ([3]; 19 patients): 16% | Response: PR, number of patients ([3]; 19 patients): 3 | Response: SD, % of patients ([3]; 19 patients): 10% | Response: SD, number of patients ([3]; 19 patients): 2 | patients responsive to the therapy ([3]; 19 patients, CR + PR + SD): 79% | adverse effects: anemia, cases ([3]; Example 2 patients): 1 case | adverse effects: nausea, cases ([3]; Example 2 patients): 2 cases | adverse effects: neutropenia, cases ([3]; Example 2 patients): 6 cases | No response, number of patients [4]: 0 | Response: CR, number of patients [4]: 1 | No response, number of patients [5]: 0 | Response: CR, number of patients [5]: 2 | No response, number of patients [6]: 0 | Response: SD, number of patients [6]: 1 | No response, number of patients [7]: 0 | Response: PR, number of patients [7]: 1 | Response: CR, % of patients [8]: 60% | Response: CR, number of patients [8]: 3 | Response: PR, % of patients [8]: 20% | Response: PR, number of patients [8]: 1 | Response: SD, % of patients [8]: 20% | Response: SD, number of patients [8]: 1 | patients with at least a partial remission [8]: 80%
